# Earlier results, collected in publication PMC9370779, “Traditional Medicinal Uses, Phytochemistry, Biological Properties, and Health Applications of Vitex sp” (Plants, 2022).
# “Also recorded” adds a separate entry of the source. Read-outs that look alike come from different tables or passages of the source.
# How the values were obtained:
# T. b rhodesiense = system: T. b rhodesiense; parameters: method as in PMID 25886869
# cyclooxygenase-1 (COX-1) = system: cyclooxygenase-1 (COX-1); parameters: method as in PMID 11842334
# [1] = system: African green monkey kidney (Vero) cell lines; parameters: method as in PMID 11842334
# [2] = parameters: method as in doi:10.1016/j.phytol.2019.11.018
# [3] = parameters: method as in PMID 26034885
# [4] = system: human colorectal carcinoma (HCT-116) cells; parameters: method as in PMID 26034885
# [5] = system: human fetal lung fibroblast (MRC15) cells; parameters: method as in PMID 26034885
# [6] = system: LPS-induced NO production; parameters: method as in PMID 31302252
# Plasmodium falciparum = system: Plasmodium falciparum; parameters: method as in PMID 32438132
# [7] = parameters: method as in PMID 23150078; conditions: 100 mg/kg dose
# [8] = system: lymphocytic leukemia (P388) cells; parameters: method as in PMID 9332026
# [9] = parameters: method as in PMID 27118321; conditions: ABTS stated for 131
# [10] = system: LPS-stimulated NO production
molecule,measurement,setting,value
"2-(3′,4′-dimethoxyphenyl)-7-hydroxychromen-4-one [Compound 125]",trypanocidal activity,T. b rhodesiense,All compounds exhibited moderate trypanocidal activity against T. b rhodesiense
"CO[C@H]1CC2C(C=O)=C(C)CC2O1 (stereo partly shown) [Compound 6, Tarumal]",COX-1 inhibition (in words),cyclooxygenase-1 (COX-1),low inhibition
same,cytotoxicity against Vero cell lines,[1],no cytotoxicity
"COc1cc(C(=O)OC2C[C@@H](O)[C@@H]3C=CO[C@@H](C[C@@H]4O[C@H](CO)[C@@H](O)[C@H](O)[C@H]4O)[C@H]23)ccc1O (stereo partly shown) [Compound 7, pedunculariside]","IC50 value, inhibition of COX-2",cyclooxygenase-2 (COX-2),150 ± 210 mg/L
same,inhibition of COX-2 (in words),cyclooxygenase-2 (COX-2),preferential inhibition of COX-2
same,COX-1 inhibition (in words),cyclooxygenase-1 (COX-1),low
same,COX-1 inhibition (in words),cyclooxygenase-1 (COX-1); listed as pedunculariside,little inhibitory effect
same,cytotoxicity against Vero cell lines,[1],no cytotoxicity
"COC1CC2C(O)C=C(COC(=O)c3ccc(O)cc3)C2C(OC)O1 (stereo not shown) [Compound 23, ishindacin A]",percentage scavenging activities on stable free radicals,[2],27.14%
"CO[C@H]1C[C@@H]2[C@@H](C(COC(=O)c3ccc(O)cc3)=C[C@H]2O)[C@H](OC)O1 [Compound 24, isonishindacin A]",percentage scavenging activities on stable free radicals,[2],25.80%
"C=C1CCC2C(C)(C)CCCC2(C)C1CC(O)C1=CC(=O)OC1O (stereo not shown) [Compound 71, 12-epivitexolide A]",antibacterial activity,[3],moderate antibacterial
same,cytotoxic activity against HCT-116 cells,[4],cytotoxic activities; also recorded: cytotoxic activity
same,cytotoxic activity against MRC15 cells,[5],cytotoxic activities; also recorded: cytotoxic activity
"C=C1CC(O)C2C(C)(C)CCCC2(C)C1CC(O)C1=CC(=O)OC1O (stereo not shown) [Compound 72, vitexolide B]",cytotoxic activity against HCT-116 cells,[4],cytotoxic activities; also recorded: Exhibited cytotoxic activity on the HCT-116 cell lines
"C=C1CC(O)C2C(C)(C)CCCC2(C)C1CC(O)C1CC(=O)OC1O (stereo not shown) [Compound 73, vitexolide C]",cytotoxic activity against HCT-116 cells,[4],cytotoxic activities; also recorded: Exhibited cytotoxic activity on the HCT-116 cell lines
"C=C1CCC2C(C)(C)CCCC2(C)C1CC(O)C1=CC(=O)OC1 (stereo not shown) [Compound 74, vitexolide E]",antibacterial activity,[3],moderate antibacterial
same,cytotoxic activity against HCT-116 cells,[4],cytotoxic activities; also recorded: cytotoxic activity
same,cytotoxic activity against MRC15 cells,[5],cytotoxic activities; also recorded: cytotoxic activity
"C=C1CC[C@H]2C(C)(C)CCC[C@]2(C)[C@H]1CC(O)/C(C)=C/C(=O)O (stereo partly shown) [Compound 75, vitexolin A]",cytotoxic activity against HCT-116 cells,[4],cytotoxic activities; also recorded: Exhibited cytotoxic activity on the HCT-116 cell lines
"C=C(CC(=O)O)C(=O)C[C@H]1C(=C)CC[C@H]2C(C)(C)CCC[C@]12C [Compound 76, vitexolin B]",antibacterial activity,[3],moderate antibacterial
same,cytotoxic activity against HCT-116 cells,[4],cytotoxic activities; also recorded: cytotoxic activity
same,cytotoxic activity against MRC15 cells,[5],cytotoxic activities; also recorded: cytotoxic activity
"CC1=C(CCC2=CCOC2=O)[C@@]2(C)CC[C@H](O[C@@H]3O[C@H](CO)[C@@H](O)[C@H](O)[C@H]3O)C(C)(C)[C@@H]2CC1 [Compound 97, (3S,5R,10S)-3-[(β-D-glucopyranosyl)oxy]-labd-8,13-dien-16,15-olide]",inhibition of LPS-induced NO production (in words),[6],strong
same,IC50,"[6]; read-out: inhibition of NO production, IC50 value",40.1 ± 1.3 µM
"CC(C)C12C=CC3(OO1)C(CCC1C(C)(C)CCCC13C)C2 (stereo not drawn) [Compound 100, abieta-11(12)-ene-9α,13α-endoperoxide]",antimalarial activity (in words),Plasmodium falciparum,exhibited antimalarial activity
CC(C)[C@@]12C=C[C@@]3(OO1)[C@@H](CCC1C(C)(C)C[C@H](OC(=O)CC(=O)O)C[C@@]13C)C2 (stereo partly shown) [Compound 100a],antimalarial activity (in words),Plasmodium falciparum,exhibited antimalarial activity
"CC(C)C12C=CC3(OO1)C(CCC1C(C)(C)CCCC13C)C2 (stereo not drawn) [Compound 101, abieta-11(12)-ene-9β,13β-endoperoxide]",times more active than compound 100,Plasmodium falciparum; Plasmodium falciparum,54
CC(C)[C@]12C=C[C@]3(OO1)[C@@H](CCC1C(C)(C)C[C@H](OC(=O)CC(=O)O)C[C@@]13C)C2 (stereo partly shown) [Compound 101a],antimalarial activity (in words),Plasmodium falciparum,exhibited antimalarial activity
"C=CC1(C)CCC2C(C)(CCC3C(C)(C)CCCC32C)O1 (stereo not shown) [Compound 102, 9αH-manoyl oxide]",antimalarial activity (in words),Plasmodium falciparum,exhibited antimalarial activity
"CC1(C)CC[C@@H]([C@@](O)(CO)C2CC[C@@]3(O)C4=CC(=O)[C@@H]5C[C@@H](O)[C@@H](O)C[C@]5(C)C4CC[C@]23C)O1 (stereo partly shown) [Compound 111, 21-hydroxyshidasterone]",anti-inflammatory activity in rat paw oedema development assay,[7],showed anti-inflammatory activity; also recorded: Exhibited anti-inflammatory activity in rat paw oedema development assay at 100 mg/kg dose
"CC1(C)CC[C@@H]([C@@H](CO)C2CC[C@@]3(O)C4=CC(=O)[C@@H]5C[C@@H](O)[C@@H](O)C[C@]5(C)C4CC[C@]23C)O1 (stereo partly drawn) [Compound 112, 11β-hydroxy-20-deoxyshidasterone]",anti-inflammatory activity in rat paw oedema development assay,[7],showed anti-inflammatory activity; also recorded: Exhibited anti-inflammatory activity in rat paw oedema development assay at 100 mg/kg dose
"COC1C(COC(=O)C=Cc2ccc(O)c(O)c2)OC(c2c(O)cc3oc(-c4ccc(O)c(O)c4)cc(=O)c3c2O)C(O)C1O (stereo not drawn) [Compound 115, luteolin 6-C-(4″-methyl-6″-O-trans-caffeoylglucoside)]","cytotoxicity against P388 cells, IC50 values",[8],7.6 mg/L
"O=C(C=Cc1ccc(O)c(O)c1)OCC1OC(c2c(O)cc3oc(-c4ccc(O)c(O)c4)cc(=O)c3c2O)C(O)C(O)C1O (stereo not drawn) [Compound 116, luteolin 6-C-(6″-O-trans-caffeoylglucoside)]","cytotoxicity against P388 cells, IC50 values",[8],14 mg/L
"O=C(C=Cc1ccc(O)c(O)c1)OC1C(c2c(O)cc3oc(-c4ccc(O)c(O)c4)cc(=O)c3c2O)OC(CO)C(O)C1O (stereo not drawn) [Compound 117, luteolin 6-C-(2″-O-trans-caffeoylglucoside)]","cytotoxicity against P388 cells, IC50 values",[8],56 mg/L
"COc1cc(-c2oc3cc(O)cc(O)c3c(=O)c2OC)ccc1O [Compound 122, 2-(5′-methoxyphenyl)-4′,5,7-trihydroxy-3-methoxychromen-4-one]",trypanocidal activity,T. b rhodesiense,All compounds exhibited moderate trypanocidal activity against T. b rhodesiense
"COc1cc(O)c2c(=O)c(OC)c(-c3ccc(O)cc3)oc2c1 [Compound 123, 2-(4′-hydroxyphenyl)-5-hydroxy-3,7-dimethoxy-chromen-4-one]",trypanocidal activity,T. b rhodesiense,All compounds exhibited moderate trypanocidal activity against T. b rhodesiense
"O=c1c(O)c(-c2ccc(O)cc2)oc2cc(O)cc(O)c12 [Compound 124, 2-(4-hydroxyphenyl)-3,5,7-trihydroxychromen-4-one]",trypanocidal activity,T. b rhodesiense,All compounds exhibited moderate trypanocidal activity against T. b rhodesiense
"COc1cc(-c2c(O)c(C(=O)O)cc3cc(OC)c(O)cc23)ccc1O [Compound 131, vitexnegheteroin G]",antioxidant activity,[9],antioxidant activity; also recorded: Exhibited antioxidant activities using ABTS scavenging activities
"CO[C@H]1O[C@H](COC(=O)c2ccc(O)cc2)[C@@H](O)[C@H](O)[C@H]1O [Compound 155, methyl (6-O-4-hydroxybenzoyl)-α-D-glucopyranoside]",antioxidant activity via ABTS radical scavenging assay,,Exhibited antioxidant and NO inhibitory activities.
same,inhibitory activity on LPS-stimulated NO production,[10],Exhibited antioxidant and NO inhibitory activities.
"O=C(OC[C@H]1O[C@@H](Oc2ccc(O)cc2)[C@H](O)[C@@H](O)[C@@H]1O)c1ccc(O)cc1 [Compound 156, breynioside A]",antioxidant activity via ABTS radical scavenging assay,,Exhibited antioxidant and NO inhibitory activities.
same,inhibitory activity on LPS-stimulated NO production,[10],Exhibited antioxidant and NO inhibitory activities.
"O=C(OC[C@H]1O[C@@H](OC(=O)c2ccc(O)cc2)[C@H](O)[C@@H](O)[C@@H]1O)c1ccc(O)cc1 [Compound 157, 1,6-di-O-4-hydroxybenzoyl-β-D-glucopyranoside]",antioxidant activity via ABTS radical scavenging assay,,Exhibited antioxidant and NO inhibitory activities.
same,inhibitory activity on LPS-stimulated NO production,[10],Exhibited antioxidant and NO inhibitory activities.
"COc1cc(O[C@@H]2O[C@H](COC(=O)c3ccc(O)cc3)[C@@H](O)[C@H](O)[C@H]2O)ccc1O [Compound 158, dunnianoside D]",antioxidant activity via ABTS radical scavenging assay,,Exhibited antioxidant and NO inhibitory activities.
same,inhibitory activity on LPS-stimulated NO production,[10],Exhibited antioxidant and NO inhibitory activities.
